Biological target: T1, GSK3β (Homo sapiens, UniProt P49841)
T1 construct: purchased Carna Biosciences
Assay: LANCE Ultra TR-FRET kinase assay: phosphorylation of non-primed ULight-labeled 4E-BP1-derived peptide by GSK3β in the presence of inhibitor
Type: biochemical
Conditions: GSK3β (Carna Biosciences) 2 nM, ATP 10 μM, ULight-4E-BP1 50 nM, 60 min, DMSO 1%, inhibitor at various concentrations
Procedure: Anti-phosphorylated-4E-BP1 antibody (Thr37/46) labeled with a FRET donor is added and upon irradiation, the proximity of the FRET donor and FRET acceptor produce a signal, shown on the y-axis. The 4E-BP1-derived peptide substrate of SEQ ID No. 7 was used, modified by addition of three amino acids at both the N- and C-termini to facilitate solubilizing the peptide and labeling of the peptide with a FRET acceptor label; and
Anti-phosphorylated-4E-BP1 antibody (Thr37/46) labeled with a FRET donor is added and upon irradiation, the proximity of the FRET donor and FRET acceptor produce a signal, shown on the y-axis The 4E-BP1-derived peptide substrate of SEQ ID No. 7 was used, modified by addition of three amino acids at both the N- and C-termini to facilitate solubilizing the peptide and labeling of the peptide with a FRET acceptor label.
LANCE® Ultra assays are based on time-resolved fluorescence resonance energy transfer (TR-FRET). They use a proprietary europium chelate donor dye, W-1024 (Eu), with ULight®, a small molecular weight acceptor dye with a red fluorescent emission. In kinase assays, the binding of a Eu-labeled anti-phospho-substrate antibody to the phosphorylated ULight-labeled substrate brings donor and acceptor dye molecules into proximity. […]

T1 sequence (P49841 whole entry): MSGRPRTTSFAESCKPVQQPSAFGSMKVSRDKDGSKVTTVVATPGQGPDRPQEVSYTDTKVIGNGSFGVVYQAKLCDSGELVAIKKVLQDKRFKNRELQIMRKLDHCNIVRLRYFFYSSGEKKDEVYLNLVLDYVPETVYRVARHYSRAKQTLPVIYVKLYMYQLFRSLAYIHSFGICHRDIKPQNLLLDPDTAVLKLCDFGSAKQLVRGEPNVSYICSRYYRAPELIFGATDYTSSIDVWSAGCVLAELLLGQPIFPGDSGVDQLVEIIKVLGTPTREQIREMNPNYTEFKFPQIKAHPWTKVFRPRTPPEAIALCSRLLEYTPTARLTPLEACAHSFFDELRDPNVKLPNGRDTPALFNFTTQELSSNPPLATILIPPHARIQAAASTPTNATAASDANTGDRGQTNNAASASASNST

For Cn1cc(C2=C(c3ccc(Cl)cc3Cl)C(=O)NC2=O)c2ccccc21 [SB216763], the “GSK3β activity on a 4E-BP1 GSK3 substrate” value was “inhibited”.
With O=C1Cc2c([nH]c3ccc(Br)cc23)-c2ccccc2N1 [kenpaullone] the “GSK3β activity on a 4E-BP1 GSK3 substrate” value was “inhibited”.

Source: patent US8323919B2, “Assay methods for identifying glycogen synthase kinase 3 modulators” (PerkinElmer BioSignal, Inc., priority 2009, dated 2012)
